Data: PubChem BioAssay (NCI)
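Cultured in 96-well plates, cells were exposed to test compound for 48 hours across five concentrations. Definition used: TGI = concentration required for complete inhibition of growth.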

Legend:
Assay in all cases: inhibition of tumour cell growth, NCI panel, 48 h
[1] = test system: 786-0 renal
[2] = test system: A498 renal
[3] = test system: A549 NSCLC
[4] = test system: ACHN renal
[5] = test system: CAKI-1 renal
[6] = test system: CCRF-CEM leukemia
[7] = test system: COLO 205 colon
[8] = test system: DU-145 prostate
[9] = test system: EKVX NSCLC
[10] = test system: HCC-2998 colon
[11] = test system: HCT-116 colon
[12] = test system: HCT-15 colon
[13] = test system: HL-60(TB) leukemia
[14] = test system: HOP-62 NSCLC
[15] = test system: HOP-92 NSCLC
[16] = test system: HS 578T breast
[17] = test system: HT29 colon
[18] = test system: IGROV1 ovarian
[19] = test system: K-562 leukemia
[20] = test system: KM12 colon
[21] = test system: LOX IMVI melanoma
[22] = test system: M14 melanoma
[23] = test system: MALME-3M melanoma
[24] = test system: MCF7 breast
[25] = test system: MDA-MB-231 breast
[26] = test system: MDA-MB-435
[27] = test system: MDA-N
[28] = test system: MOLT-4 leukemia
[29] = test system: NCI-H226 lung
[30] = test system: NCI-H23 lung
[31] = test system: NCI-H460 lung
[32] = test system: NCI-H522 lung
[33] = test system: NCI/ADR-RES ovarian
[34] = test system: OVCAR-3 ovarian
[35] = test system: OVCAR-4 ovarian
[36] = test system: OVCAR-5 ovarian
[37] = test system: OVCAR-8 ovarian
[38] = test system: PC-3 prostate
[39] = test system: RPMI-8226 leukemia
[40] = test system: RXF 393 renal
[41] = test system: SF-268 CNS
[42] = test system: SF-295 CNS
[43] = test system: SF-539 CNS
[44] = test system: SK-MEL-2 melanoma
[45] = test system: SK-MEL-28 melanoma
[46] = test system: SK-MEL-5 melanoma
[47] = test system: SK-OV-3 ovarian
[48] = test system: SN12C renal
[49] = test system: SNB-19 CNS
[50] = test system: SNB-75 CNS
[51] = test system: SR leukemia
[52] = test system: SW-620 colon
[53] = test system: T-47D breast
[54] = test system: TK-10 renal
[55] = test system: U251 CNS
[56] = test system: UACC-257 melanoma
[57] = test system: UO-31 renal
[58] = test system: BT-549 breast
[59] = test system: UACC-62 melanoma

Measured: TGI

CCOC(=O)Cc1csc(NC(NC(=O)OCC)(C(=O)OCC)C(F)(F)F)n1 (centres undefined)
not listed: [58] | [59]
> 100 µM: all other assays above

COc1cccc(/C=N/n2c(Cc3ccccc3)n[nH]c2=O)c1
50 µM: [16]
61.2 µM: [50]
> 25.6 µM: [29]
> 60.3 µM: [48]
not listed: [13] | [15] | [18] | [51]
> 100 µM: all other assays above

c1csc(-c2nn3c(C45CC6CC(CC(C6)C4)C5)nnc3s2)c1
not listed: [20] | [24] | [54] | [58]
> 100 µM: all other assays above

NC1N=C(c2ccc(Cl)cc2)C2=C(N1)c1ccccc1CC2 (centres undefined)
> 88.7 µM: [57]
> 56.3 µM: [46]
12.2 µM: [39]
> 57.1 µM: [18]
28.4 µM: [17]
> 59.3 µM: [22]
> 31.4 µM: [28]
> 78.4 µM: [52]
88.2 µM: [35]
> 46.8 µM: [24]
> 67 µM: [20]
10.6 µM: [13]
54.3 µM: [29]
> 26.1 µM: [19]
36.2 µM: [32]
> 73.1 µM: [1]
> 50.9 µM: [21]
> 80.7 µM: [3]
> 56.9 µM: [11]
18.5 µM: [10]
> 22.6 µM: [26]
> 22.7 µM: [50]
46.6 µM: [44]
50.1 µM: [40]
> 82.7 µM: [14]
not listed: [51]
> 100 µM: all other assays above

COc1ccc2c3c1OC1C(F)C=CC4(O)C(C2)NCCC314 (centres undefined)
3.12 µM: [7]
10.7 µM: [45]
6.64 µM: [30]
5.56 µM: [23]
6.66 µM: [58]
10.4 µM: [21]
11.1 µM: [12]
3.34 µM: [26]
5.83 µM: [16]
20.3 µM: [18]
2.02 µM: [32]
30.8 µM: [29]
3.01 µM: [11]
6.65 µM: [44]
7.13 µM: [14]
23.1 µM: [3]
6.92 µM: [38]
12.8 µM: [10] | [36] | [54]
10.5 µM: [59]
15.6 µM: [2]
4.62 µM: [57]
10.9 µM: [17]
5.78 µM: [49]
4.42 µM: [51]
5.25 µM: [24]
> 100 µM: [19]
38.3 µM: [33]
7.71 µM: [52]
24.1 µM: [56]
6.56 µM: [5]
7.07 µM: [34]
3.27 µM: [1]
9.71 µM: [8]
12.7 µM: [25]
7.05 µM: [35]
3.91 µM: [6]
6.59 µM: [55]
4.93 µM: [22]
21.9 µM: [42]
7.98 µM: [40]
20.2 µM: [15]
10.3 µM: [47] | [48]
11 µM: [9] | [27]
6.93 µM: [41]
6.58 µM: [50]
13 µM: [20]
16.1 µM: [46]
21.4 µM: [31]
14.7 µM: [37]
10.8 µM: [4]
3.76 µM: [28]

CN(C)C(C1=C(O)C(c2ccccc2)N(c2ccccc2)C1=O)N1CCOCC1 (centres undefined)
not listed: [51]
> 10 µM: all other assays above

CC(=O)NC1C(OC(C)C(=O)NC(C)C(=O)NC(CCC(=O)NCCCCCNc2ccc([N+](=O)[O-])c3[nH]c4ccccc4c(=O)c23)C(N)=O)C(O)C(CO)OC1(C)OCc1ccccc1 (centres undefined)
70.1 µM: [39]
82.1 µM: [54]
not listed: [13] | [15] | [45]
> 100 µM: all other assays above
